Laboratory results: patent US5441948A, “1,3,4-benzotraizepin-5(4H)-one derivatives and process for the preparation thereof” (priority 1992, dated 1995)

What was measured:
[1] = tested on: vasopressin-induced ST elevation; assay: Inhibitory effect on the vasopressin-induced ST elevation in anaesthetized rats; format: in vivo, CFY male rats; settings: vasopressin 3 IE/kg i.v.
Experimental: II. Inhibitory effect on the vasopressin-induced ST elevation in anaesthetized rats
The studies were performed in 200-250 g CFY male rats. Animals were anaesthetized with intraperitoneally administered urethane ([…]), then subjected to ECG, using limb leads. Coronary spasm, reflected by elevated ST deflection in the ECG recordings, was induced by treating the rats with 3 IE/kg of vasopressin intravenously. […] Methods. 5, 325-336 (1981)].
Dose of compounds of the invention: 1 mg/kg, i.v. except where appears

[2] = tested on: isolated canine Purkinje fibres; assay: Intracellular electrophysiology, action potential duration (50% and 90% repolarization) in isolated canine Purkinje fibres; format: cell-based, canine (mongrel dogs)
Experimental: I. Intracellular electrophysiological studies on isolated canine Purkinje fibres: study of the characteristics and the duration of the action potential
Mongrel dogs of both sexes, weighing 8-22 kg, were anaesthetized with intravenously administered sodium pentobarbital, 30 mg/kg (Nembutal®).The superficial Purkinje fibres were excised from the heart and placed in plastic organ bath containing Tyrode's solution ([…] of Na^+, 4.0 mM of K^+, 133.3 mM of Cl^-, 2.0 mM of Ca^2+, 22.0 mM of HCO3 -, 0.9 mM of H2 PO4^+, 0.7 mM of Mg^2+, 5.0 mM of glucose) The perfusate (Tyrode's solution) was gassed with a mixture of 95% of O^2 and 5% of CO2. Temperature of the organ bath was 37.0°±0.5° C. pH=7.3±0.5. Purkinje fibres were incubated for 1-2 hours in order to avoid spontaneous changes in the duration of action potential, to be observed often for a short period after the preparation completed. Conventional glass microelectrode method was used to measure intracellular action potentials. The electrodes were filled with 3M KCl solution, resistance was 5-15 Mohm. Microelectrodes were connected to high input-resistance capacity-neutralizing amplifier through a Ag-AgCl connection. Another electrode was placed in the organ bath as a reference electrode. Maximum rate of depolarization (Vmax) was measured with an electronic differentiating unit. The intracellular pulses were visualized on a two-channel oscilloscope by a microcomputer in on-line mode. The following parameters were measured: resting potential, action potential amplitude, 50% and 90% repolarizations, maximum rate of depolarization. Preparations were stimulated through silver electrodes insulated with PTFE. Parameters of stimuli were rectangular pulses of 1 ms duration with an intensity of two times the threshold. The basal stimulation periods were changed between 200 and 1000 msec. [Varre et al., J. Cardiovasc. Pharmacol. 11, 251 (1988)].
The applied dose of the compounds according to the invention is 10 mg/L.
Concentration of Pinacidil: 1 mg/L
Concentration of Nicorandil: 5 mg/L
APD: action potential duration

[3] = result in words, characteristic of drugs with merely K+-channel-activating activity; cited from earlier work
[4] = 5.0 mg/kg i.v. pretreatment (*)

| SMILES | ADD90 Change (%) ([2]; 10 mg/L) | ARD50 Change (%) ([2]; 10 mg/L) | ADD90 after treatment ([2]; 10 mg/L) [ms] | ARD50 after treatment ([2]; 10 mg/L) [ms] | Inhibition (%) of vasopressin-induced ST elevation ([1]; 1 mg/kg, i.v. pretreatment) [%] | further results |
| --- | --- | --- | --- | --- | --- | --- |
| CN1NC(N=C(N)N2CCCCC2)=Nc2ccccc2C1=O [Example 4, 2-[Amino-(1-piperidinyl)-methyleneamino]-4-methyl-3,4-dihydro-4H-1,3,4-benzotriazepin-5-one] | -10 | -33 | 226 | 113 | – | Inhibition (%) of vasopressin-induced ST elevation [1, 4]: -36% |
| CC(NC(N)=NC1=Nc2ccccc2C(=O)N(C)N1)C(C)(C)C (stereo not drawn) [Example 17, 2-[amino-(3,3-dimethyl-2-butylamino)-methyleneamino]-4-methyl-3,4-dihydro-1,3,4-benzotriazepin-5(4H)-one] | -13 | -42 | 221 | 91 | -68 | – |
| CC(NC1=Nc2ccccc2C(=O)N(C)N1)C(C)(C)C (stereo not drawn) [Example 18, 2-(3,3-dimethyl-2-butylamino)-4-methyl-3,4-dihydro-1,3,4-benzotriazepin-5(4H)-one] | -15 | -29 | 213 | 111 | – | – |
| COc1cc(C(=O)OCCCN2C(N=C(N)N3CCCNCC3)=Nc3ccccc3C(=O)N2C)cc(OC)c1OC [Example 19, 2-[amino-(1-homopiperazinyl)-methyleneamino]-3-[3-(3,4,5-trimethoxybenzoyloxy)-1-propyl]-4-methyl-3,4-dihydro-1,3,4-benzotriazepin-5(4H)-one] | -9 | -25 | 237 | 121 | -59 | – |
| CN1C(=O)c2ccccc2N=C(NCc2cccnc2)N1CCCN1CCN(c2ccccc2)CC1 [Example 20, 2-(3-pyridylmethylamino)-3-[3-(4-phenyl-1-piperazinyl)-1-propyl]-4-methyl-3,4-dihydro-1,3,4-benzotriazepin-5 (4H)-one] | -5 | -42 | 227 | 79 | – | – |
| CN1C(=O)c2ccccc2N=C(N=C(N)N2CCCCC2)N1Cc1ccccn1 [Example 22, 2-[amino-(1-piperidinyl)-methyleneamino]-3-(2-pyridylmethyl)-4-methyl-3,4-dihydro-1,3,4-benzotriazepin-5(4H)-one] | -10 | -39 | 219 | 97 | -59 | – |
| O=C(NCCO[N+](=O)[O-])c1cccnc1 [Nicorandil, reference compound] | – | – | – | – | -12 | Inhibition (%) of vasopressin-induced ST elevation [1, 4]: -60%; ADD90 Change (%) ([2]; Nicorandil 5 mg/L): -32%; ARD50 Change (%) ([2]; Nicorandil 5 mg/L): -41%; ADD90 after treatment ([2]; Nicorandil 5 mg/L): 179 ms; ARD50 after treatment ([2]; Nicorandil 5 mg/L): 107 ms |
| CC(N/C(=N\C#N)Nc1ccncc1)C(C)(C)C (stereo not drawn) [Pinacidil, reference compound] | – | – | – | – | – | unpleasant side-effects [3]: tachycardia and the so-called "first dose effect"; ADD90 Change (%) ([2]; Pinacidil 1 mg/L): -45%; ARD50 Change (%) ([2]; Pinacidil 1 mg/L): -61%; ADD90 after treatment ([2]; Pinacidil 1 mg/L): 141 ms; ARD50 after treatment ([2]; Pinacidil 1 mg/L): 71 ms |
